Tests used:
Type in all cases: biochemical
[1] = target: T1, TBK1 (Homo sapiens, UniProt Q9UHD2); assay: ADP-Glo Kinase Assay, inhibition activity on TBK1
T1 construct: purchased Promega V3991
T1 sequence (Q9UHD2 1-729): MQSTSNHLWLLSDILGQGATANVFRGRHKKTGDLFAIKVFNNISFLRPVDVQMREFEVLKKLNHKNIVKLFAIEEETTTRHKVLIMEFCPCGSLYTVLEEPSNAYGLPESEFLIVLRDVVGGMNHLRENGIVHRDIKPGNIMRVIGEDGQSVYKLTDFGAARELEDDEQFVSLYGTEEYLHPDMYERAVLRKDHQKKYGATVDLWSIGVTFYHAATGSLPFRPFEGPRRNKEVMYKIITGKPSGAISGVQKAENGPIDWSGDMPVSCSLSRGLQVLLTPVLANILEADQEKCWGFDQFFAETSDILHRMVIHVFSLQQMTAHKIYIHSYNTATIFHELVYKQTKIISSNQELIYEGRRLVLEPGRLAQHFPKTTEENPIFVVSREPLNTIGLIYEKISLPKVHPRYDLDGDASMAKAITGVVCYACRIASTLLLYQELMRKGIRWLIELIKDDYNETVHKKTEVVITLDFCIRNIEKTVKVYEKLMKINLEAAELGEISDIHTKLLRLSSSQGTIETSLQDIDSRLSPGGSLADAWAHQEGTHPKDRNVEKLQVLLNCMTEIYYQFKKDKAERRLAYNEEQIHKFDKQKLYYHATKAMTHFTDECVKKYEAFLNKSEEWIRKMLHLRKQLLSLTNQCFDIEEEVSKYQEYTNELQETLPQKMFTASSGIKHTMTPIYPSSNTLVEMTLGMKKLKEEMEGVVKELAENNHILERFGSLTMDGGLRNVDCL
Experimental: (§1) The inhibition activities on TNIK, IKKε and TBK1 were measured by a luminometer, TNIK/IKKε/TBK1 Kinase Enzyme System (Promega, Ca# V4158; Invitrogen, PR8031B, Promega, Ca# V3991) and ADP-Glo Kinase Assay using ADP-Glo™ Kinase Analysis Kit (Promega, Ca# V9101) and a kinase reaction buffer [40 mM Tris(pH 7.5), 20 mM MgCl2, 0.1 mg/mL BSA] in accordance with the manufacturer's protocol.

[2] = target: T2, IKKε (Homo sapiens, UniProt Q14164); assay: ADP-Glo Kinase Assay, inhibition activity on IKKε
T2 construct: purchased Invitrogen PR8031B
T2 sequence (Q14164 1-716): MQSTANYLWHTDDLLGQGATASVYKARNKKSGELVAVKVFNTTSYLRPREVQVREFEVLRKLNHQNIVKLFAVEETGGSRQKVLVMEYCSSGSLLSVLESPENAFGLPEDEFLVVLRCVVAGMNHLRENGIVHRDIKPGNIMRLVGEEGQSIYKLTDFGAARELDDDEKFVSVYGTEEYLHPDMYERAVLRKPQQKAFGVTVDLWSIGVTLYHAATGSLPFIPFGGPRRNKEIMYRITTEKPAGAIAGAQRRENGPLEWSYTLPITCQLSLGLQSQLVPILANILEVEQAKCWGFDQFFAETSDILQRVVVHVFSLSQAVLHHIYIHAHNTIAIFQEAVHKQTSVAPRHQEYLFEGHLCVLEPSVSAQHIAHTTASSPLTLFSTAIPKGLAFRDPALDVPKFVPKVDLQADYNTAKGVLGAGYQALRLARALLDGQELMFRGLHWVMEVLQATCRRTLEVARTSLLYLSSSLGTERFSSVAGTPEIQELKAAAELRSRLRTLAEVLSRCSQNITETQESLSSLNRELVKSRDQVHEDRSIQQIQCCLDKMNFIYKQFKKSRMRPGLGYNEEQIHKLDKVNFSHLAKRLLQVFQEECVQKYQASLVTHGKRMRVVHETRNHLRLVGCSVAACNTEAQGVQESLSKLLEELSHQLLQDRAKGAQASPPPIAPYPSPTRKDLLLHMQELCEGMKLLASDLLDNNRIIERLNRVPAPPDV
Experimental: as §1

[3] = target: T3, TNIK (Homo sapiens, UniProt Q9UKE5); assay: ADP-Glo Kinase Assay, inhibition activity on TNIK; settings: read-out: TNIK
T3 construct: purchased Promega V4158
T3 sequence (Q9UKE5 1-367 limits assumed): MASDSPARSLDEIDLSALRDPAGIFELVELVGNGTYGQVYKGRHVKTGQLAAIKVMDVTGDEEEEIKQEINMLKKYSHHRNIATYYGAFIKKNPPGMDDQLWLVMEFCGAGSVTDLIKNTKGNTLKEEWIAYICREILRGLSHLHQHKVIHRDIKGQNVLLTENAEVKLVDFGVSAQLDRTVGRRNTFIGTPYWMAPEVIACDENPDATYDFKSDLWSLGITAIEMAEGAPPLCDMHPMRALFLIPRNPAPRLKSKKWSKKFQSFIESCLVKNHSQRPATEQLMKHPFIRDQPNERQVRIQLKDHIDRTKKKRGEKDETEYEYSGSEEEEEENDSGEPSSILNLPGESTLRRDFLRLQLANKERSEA
Experimental: as §1

IC50 [1] [nM] | IC50 [2] [nM] | IC50 [3] [nM] | SMILES
51 | 51 |  | COc1cccc(Nc2nccc(-c3ccc(N)c4c3CNC4=O)n2)c1 [Example 70, 7-Amino-4-(2-((3-methoxyphenyl)amino)pyrimidin-4-yl) isoindolin-1-one]
90 | 280 |  | Nc1ccc(-c2ccnc(Nc3ccccc3)n2)c2c1C(=O)NC2 [Example 72, 7-Amino-4-(2-(phenylamino)pyrimidin-4-yl)isoindolin-1-one]
35 | 350 |  | Nc1ccc(-c2ccnc(Nc3cccc(F)c3)n2)c2c1C(=O)NC2 [Example 73, 7-Amino-4-(2-((3-fluorophenyl)amino)pyrimidin-4-yl) isoindolin-1-one]
43 | 560 |  | Nc1ccc(-c2ccnc(Nc3ccc(F)cc3)n2)c2c1C(=O)NC2 [Example 74, 7-Amino-4-(2-((4-fluorophenyl)amino)pyrimidin-4-yl) isoindolin-1-one]
110 | 360 |  | COc1ccc(Nc2nccc(-c3ccc(N)c4c3CNC4=O)n2)cc1 [Example 75, 7-Amino-4-(2-((4-methoxyphenyl)amino)pyrimidin-4-yl) isoindolin-1-one]
100 | 350 |  | CC(=O)Nc1ccc(Nc2nccc(-c3ccc(N)c4c3CNC4=O)n2)cc1 [Example 76, N-(4-((4-(7-amino-1-oxoisoindolin-4-yl)pyrimidin-2-yl)amino)phenyl)acetamide]
27 | 200 |  | CC(=O)Nc1cccc(Nc2nccc(-c3ccc(N)c4c3CNC4=O)n2)c1 [Example 77, N-(3-((4-(7-amino-1-oxoisoindolin-4-yl)pyrimidin-2-yl)amino)phenyl)acetamide]
380 | 870 |  | Cc1ccc(Nc2nccc(-c3ccc(N)c4c3CNC4=O)n2)cc1 [Example 83, 7-Amino-4-(2-(p-tolylamino)pyrimidin-4-yl)isoindolin-1-one]
200 | 440 |  | Cc1cccc(Nc2nccc(-c3ccc(N)c4c3CNC4=O)n2)c1 [Example 84, 7-Amino-4-(2-(m-tolylamino)pyrimidin-4-yl)isoindolin-1-one]

Second part, the molecule before the results:

SMILES | IC50 [1] [nM] | IC50 [2] [nM] | IC50 [3] [nM]
COc1cccc(Nc2cc(-c3ccc(N)c4c3CNC4=O)ccn2)c1 [Example 68, 7-Amino-4-(2-((3-methoxyphenyl)amino)pyridin-4-yl) isoindolin-1-one] | 1240 | 2640 | 
COc1cccc(Nc2ccnc(-c3ccc(N)c4c3CNC4=O)c2)c1 [Example 69, 7-Amino-4-(4-((3-methoxyphenyl)amino)pyridin-2-yl) isoindolin-1-one] | > 10000 |  | 
Cn1cc(Nc2nccc(-c3ccc(N)c4c3CNC4=O)n2)cn1 [Example 71] | 150 | 160 | 
COc1cccc(Nc2cc(-c3ccc(N)c4c3CNC4=O)ncn2)c1 [Example 78, 7-Amino-4-(6-((3-methoxyphenyl)amino)pyrimidin-4-yl) isoindolin-1-one] | 190 | 1390 | 
Nc1ccc(-c2c[nH]c3ncc(-c4ccccc4)cc23)c2c1C(=O)NC2 [Example 79, 7-Amino-4-(5-phenyl-1H-pyrrolo[2,3-b]pyridin-3-yl) isoindolin-1-one] | 640 |  | 
Nc1ccc(-c2ccnc3[nH]ccc23)c2c1C(=O)NC2 [Example 80, 7-Amino-4-(1H-pyrrolo[2,3-b]pyridin-4-yl)isoindolin-1-one] | 9230 | > 10000 | 
CN1CCN(c2nccc(-c3ccc(N)c4c3CNC4=O)n2)CC1 [Example 81, 7-Amino-4-(2-(4-methylpiperazin-1-yl)pyrimidin-4-yl) isoindolin-1-one] | > 10000 | > 10000 | 
Nc1ccc(-c2ccnc(N3CCOCC3)n2)c2c1C(=O)NC2 [Example 82, 7-Amino-4-(2-morpholinopyrimidin-4-yl)isoindolin-1-one] | > 10000 | > 10000 | 
CC(=O)Nc1ccc(-c2cnc3[nH]cc(-c4ccc(N)c5c4CNC5=O)c3c2)cc1 [Example 85, N-(4-(3-(7-amino-1-oxoisoindolin-4-yl)-1H-pyrrolo[2,3-b]pyridine-5-yl)phenyl)acetamide] | 72 | 160 | 
Nc1ccc(-c2c[nH]c3ncc(-c4ccc(CN5CCOCC5)s4)cc23)c2c1C(=O)NC2 [Example 86, 7-Amino-4-(5-(5-(morpholinomethyl)thiophen-2-yl)-1H-pyrrolo[2,3-b]pyridin-3-yl)isoindolin-1-one] | 32 | 56 | 
COc1cccc(Nc2nccc(-c3ccc(NC(C)=O)c4c3CNC4=O)n2)c1 [Example 162, N-(7-(2-((3-methoxyphenyl)amino)pyrimidin-4-yl)-3-oxoisoindolin-4-yl)acetamide] | 100 | 630 | 
Cc1ccccc1Nc1ccc(NC(=O)c2ccc(NCCN3CCCCC3)cc2)c2c1CNC2=O [Example 482, N-(3-oxo-7-(o-tolylamino)isoindolin-4-yl)-4-((2-(piperidin-1-yl)ethyl)amino)benzamide] |  |  | 420
Cc1ccccc1Nc1ccc(NC(=O)c2ccc(NCCCN3CCCCC3)cc2)c2c1CNC2=O [Example 483, N-(3-oxo-7-(o-tolylamino)isoindolin-4-yl)-4-((3-(piperidin-1-yl)propyl)amino)benzamide] |  |  | 250
O=C(Nc1ccc(Nc2ccccc2)c2c1C(=O)NC2)c1ccc(NCCCCO)cc1 [Example 484, 4-((4-Hydroxybutyl)amino)-N-(3-oxo-7-(phenylamino)isoindolin-4-yl)benzamide] |  |  | 290
CC(=O)NCCNc1ccc(C(=O)Nc2ccc(Nc3ccccc3)c3c2C(=O)NC3)cc1 [Example 485, 4-((2-Acetamidoethyl)amino)-N-(3-oxo-7-(phenylamino)isoindolin-4-yl)benzamide] |  |  | 100
NCCCNc1ccc(C(=O)Nc2ccc(Nc3ccccc3)c3c2C(=O)NC3)cc1 [Example 486, 4-((3-Aminopropyl)amino)-N-(3-oxo-7-(phenylamino)isoindolin-4-yl)benzamide] |  |  | 200
O=C(Nc1ccc(Nc2ccccc2)c2c1C(=O)NC2)c1ccc(NCCO)cc1 [Example 487, 4-((2-Hydroxyethyl)amino)-N-(3-oxo-7-(phenylamino)isoindolin-4-yl)benzamide] |  |  | 97
O=C(Nc1ccc(Nc2ccccc2)c2c1C(=O)NC2)c1ccc(NCC(O)CN2CCCCC2)cc1 (stereo not shown) [Example 488, 4-((2-Hydroxy-3-(piperidin-1-yl)propyl)amino)-N-(3-oxo-7-(phenylamino)isoindolin-4-yl)benzamide] |  |  | 93
O=C(Nc1ccc(Nc2ccccc2)c2c1C(=O)NC2)c1ccc(NC[C@H](O)CN2CCCCC2)cc1 [Example 489, (S)-4-((2-hydroxy-3-(piperidin-1-yl)propyl)amino)-N-(3-oxo-7-(phenylamino)isoindolin-4-yl)benzamide] |  |  | 87
O=C(Nc1ccc(Nc2ccccc2)c2c1C(=O)NC2)c1ccc(NC[C@@H](O)CN2CCCCC2)cc1 [Example 490, (R)-4-((2-hydroxy-3-(piperidin-1-yl)propyl)amino)-N-(3-oxo-7-(phenylamino)isoindolin-4-yl)benzamide] |  |  | 140
NC1CCN(c2ccc(C(=O)Nc3ccc(Nc4ccccc4)c4c3C(=O)NC4)cc2)CC1 [Example 491, 4-(4-Aminopiperidin-1-yl)-N-(3-oxo-7-(phenylamino)isoindolin-4-yl)benzamide] |  |  | 110
O=C(Nc1ccc(Nc2ccccc2)c2c1C(=O)NC2)c1ccc(NCCN2CCCCCC2)cc1 [Example 492, 4-((2-(Azepan-1-yl)ethyl)amino)-N-(3-oxo-7-(phenylamino)isoindolin-4-yl)benzamide] |  |  | 180

From patent publication US9856216B2, “Compounds as TNIK, IKKε and TBK1 inhibitors and pharmaceutical composition comprising same” (GREEN CROSS CORPORATION, priority 2015, dated 2018)
